Experimental data taken from publication PMC11855827, “High-Throughput Screening of Five Compound Libraries for Anthelmintic Activity and Toxicity Leads to the Discovery of Two Flavonoid Compounds” (International Journal of Molecular Sciences, 2025).
Read-outs that look alike come from different tables or passages of the source.

Test system: C. elegans
Experiment: microbe, parasite or virus in culture
Conditions: Caenorhabditis elegans
[1] = 0 h, read-out: Percentage of motility inhibition 0 h, Table S2, C. elegans SS assay, 110 μM, 0 h, averages of 4 data points
[2] = 24 h, read-out: Percentage of motility inhibition 24 h, Table S2, C. elegans SS assay, 110 μM, 24 h, averages of 4 data points
[3] = 0 h, read-out: Percentage of motility inhibition 0 h
[4] = 24 h, read-out: Percentage of motility inhibition 24 h

Compound	inhibition at 110 µM [1] [%]	inhibition at 110 µM [2] [%]	inhibition at 110 µM [3] [%]	inhibition at 110 µM [4] [%]
CC[C@H]1CN2CC[C@@]3(C(=O)Nc4ccccc43)[C@@H]2C[C@@H]1/C(=C\OC)C(=O)OC [Isorhynchophylline]	0	0	–	–
C[C@@H]1CC[C@]2(C(=O)O)CC[C@]3(C)C(=CC[C@@H]4[C@@]5(C)CC[C@H](O)[C@@](C)(CO)[C@@H]5CC[C@]43C)[C@@H]2[C@]1(C)O [Rotundic acid]	24	45	–	–
C[C@H]1[C@H](C)CC[C@]2(C(=O)O)CC[C@]3(C)C(=CC[C@@H]4[C@@]5(C)C[C@@H](O)[C@H](O)[C@@](C)(CO)[C@@H]5CC[C@]43C)[C@H]12 [Asiatic acid]	41	55	–	–
C[C@@H]1O[C@@H](O[C@H]2[C@H](O[C@H]3CC[C@@]4(C)[C@@H](CC[C@]5(C)[C@@H]4CC=C4[C@@H]6CC(C)(C)CC[C@]6(C(=O)O)CC[C@]45C)[C@]3(C)CO)OC[C@H](O)[C@@H]2O)[C@H](O)[C@H](O)[C@H]1O [alpha-Hederin]	–	–	6	0
Cc1oc(=O)oc1COC(=O)C1=C([C@H]2CCCO2)S[C@@H]2[C@@H]([C@@H](C)O)C(=O)N12 [Faropenem daloxate]	5	17	–	–
C=C1C[C@@]23CC[C@H]4[C@@](C)(CCC[C@@]4(C)C(=O)O[C@@H]4O[C@H](CO)[C@@H](O)[C@H](O)[C@H]4O)[C@@H]2CC[C@]1(O[C@@H]1O[C@H](CO)[C@@H](O)[C@H](O)[C@H]1O[C@@H]1O[C@H](CO)[C@@H](O)[C@H](O)[C@H]1O)C3 [Stevioside]	15	0	–	–
Cc1ccc(C(C)C)c(O)c1 [Thymol]	54	28	–	–
O=C(O)c1ccccc1 [Benzoic acid]	–	–	3	6
O=C(O)c1ccccc1C(=O)Nc1ccc(S(=O)(=O)Nc2nccs2)cc1 [Phthalylsulfathiazole]	12	0	–	–
C=C(C)[C@H]1CN[C@H](C(=O)O)[C@H]1CC(=O)O [Kainic acid]	0	0	–	–
C=C1[C@@H](O)[C@]2(O)OC[C@]34[C@H]2[C@@]2(C)[C@H](O)C(=O)C=C(C)[C@@H]2C[C@H]3OC(=O)[C@H](O)[C@@]14O [Eurycomanone]	0	4	–	–
COC1=C[C@]23CCCN2CCc2cc4c(cc2[C@@H]3[C@@H]1O)OCO4 [Cephalotaxine]	0	0	–	–
CC12CCC(C1)C(C)(C)C2O (stereo not shown) [Fenchyl alcohol]	2	0	–	–
C[C@]1(COc2ccc(N3CCC(Oc4ccc(OC(F)(F)F)cc4)CC3)cc2)Cn2cc([N+](=O)[O-])nc2O1 [Delamanid]	42	21	–	–
CC1(C)C[C@H]2C3=CC[C@@H]4[C@@]5(C)CC[C@H](O)[C@](C)(CO)[C@@H]5CC[C@@]4(C)[C@]3(C)CC[C@@]2(C)[C@H](O)[C@@H]1O [Soyasapogenol A]	5	3	–	–
CC(C)=CCc1cc2c(cc1O)O[C@H](c1ccc(O)cc1)CC2=O [Bavachin]	27	24	–	–
COc1cccc(N2CCN(C3=Nc4c(F)cccc4[C@H](CC(=O)O)N3c3cc(C(F)(F)F)ccc3OC)CC2)c1 [Letermovir]	24	0	–	–
O=C(O)/C=C/C(=O)O [Fumaric acid]	8	5	–	–
O=c1c(O[C@@H]2O[C@H](CO)[C@@H](O)[C@H](O)[C@H]2O)c(-c2ccc(O)c(O)c2)oc2cc(O)cc(O)c12 [Isoquercitrin]	31	2	–	–

Compound	inhibition at 110 µM [1] [%]	inhibition at 110 µM [2] [%]	inhibition at 110 µM [3] [%]	inhibition at 110 µM [4] [%]
COC(=O)C1=CO[C@@H](O)[C@@H]2C(CO)=CC[C@H]12 [Genipin]	0	0	–	–
COc1ccc(-c2coc3cc(O[C@@H]4O[C@H](CO)[C@@H](O)[C@H](O)[C@H]4O)ccc3c2=O)cc1 [Ononin]	10	0	–	–
Cc1ncc([N+](=O)[O-])n1CC(O)CCl (stereo not shown) [Ornidazole]	8	7	–	–
C=CC(C)(O)CCC=C(C)C (stereo not shown) [Linalool]	–	–	14	20
CC1=C2C(=O)O[C@@H](c3ccoc3)[C@]2(C)CCC1 [Fraxinellone]	0	6	–	–
OCC1=C[C@@H](O)[C@@H]2C=CO[C@@H](O[C@@H]3O[C@H](CO)[C@@H](O)[C@H](O)[C@H]3O)[C@H]12 [Aucubin]	10	19	–	–
CC(C)(CO)[C@@H](O)C(=O)NCCC(=O)O [D-Pantothenic acid]	9	10	–	–
COC(=O)c1ccccc1O [Methyl Salicylate]	21	12	–	–
O=c1c(-c2ccc(O)cc2)coc2cc(O)cc(O)c12 [Genistein]	5	2	–	–
C/C=C(/C)C(=O)O[C@H]1[C@H](O)[C@]2(COC(C)=O)[C@H](O)C[C@]3(C)C(=CC[C@@H]4[C@@]5(C)CC[C@H](O[C@@H]6O[C@H](C(=O)O)[C@@H](O[C@@H]7O[C@H](CO)[C@@H](O)[C@H](O)[C@H]7O)[C@H](O)[C@H]6O[C@@H]6O[C@H](CO)[C@@H](O)[C@H](O)[C@H]6O)[C@](C)(CO)[C@@H]5CC[C@]43C)[C@@H]2CC1(C)C [Isoescin IB]	9	0	–	–
CO[C@H]1C(=O)[C@]2(C)[C@@H](OC)C[C@H]3OC[C@@]3(OC(C)=O)[C@H]2[C@H](OC(=O)c2ccccc2)[C@]2(O)C[C@H](OC(=O)[C@H](O)[C@@H](NC(=O)OC(C)(C)C)c3ccccc3)C(C)=C1C2(C)C [Cabazitaxel]	3	9	–	–
C=C(C)[C@H](C)c1cc(/C=C/C(=O)c2ccc(O)cc2)c(OC)cc1O [Licochal cone E]	5	0	–	–
C[C@H]1O[C@@H](O[C@H]2CC[C@@]3(C)[C@@H](CC[C@]4(C)[C@@H]3C=C[C@]35OC[C@@]6(CCC(C)(C)C[C@H]63)[C@@H](O)C[C@]54C)[C@]2(C)CO)[C@H](O)[C@@H](O[C@@H]2O[C@H](CO)[C@@H](O)[C@H](O)[C@H]2O)[C@H]1O [Saikosaponin A]	2	4	–	–
C=CC1=C(C(=O)O)N2C(=O)[C@@H](NC(=O)/C(=N\OCC(=O)O)c3csc(N)n3)[C@H]2SC1 [Cefixime]	38	12	–	–
N#Cc1ccc(C(c2ccc(C#N)cc2)n2cncn2)cc1 [Letrozole]	0	0	–	–
Cc1cc2c(C(C)C)c(O)c(O)c(C=O)c2c(O)c1-c1c(C)cc2c(C(C)C)c(O)c(O)c(C=O)c2c1O [Gossypol]	0	26	–	–
NCCc1c[nH]cn1 [Histamine]	5	6	–	–
C[C@H](CO)C1=C(O)C(=O)c2c(ccc3c2CCCC3(C)C)C1=O [Neocryptotanshinone]	18	25	–	–
COc1c(O[C@@H]2O[C@H](CO)[C@@H](O)[C@H](O)[C@H]2O)cc2occ(-c3ccc(O)cc3)c(=O)c2c1O [Tectoridin]	1	11	–	–
